Measured values taken from patent US20240293548A1, “CONTACT LENS FOR PHOTODYNAMIC INACTIVATION OF GERMS, PRODUCT AND METHOD OF TREATING FUNGAL KERATITIS BY APPLYING THE SAME” (NATIONAL CHENG KUNG UNIVERSITY, priority 2023, published 2024).

Tests used:
[1] = tested on: Candida albicans (drug-resistant strain, BCRC 21538 / ATCC 10231); experiment: Antimicrobial efficacy of rose bengal-PDT (colony counting after green light exposure); format: cell-based; details: 0.2 wt % RB; for log reduction value of the amounts of C. albicans: compared to without light exposure; for antimicrobial rate: equivalent of log reduction
Experimental: A drug-resistant strain of Candida albicans was bought from the Bioresource Collection and Research Center (BCRC), Food Industry Research and Development Institute (FIRDI), 331, Shipin Rd., East Dist., Hsinchu City, Taiwan (postcode: 300193) under the accession number of BCRC 21538. The same strain could also be bought from American Type Culture Collection (ATCC), VA, USA under an accession number of ATCC 10231.
The Candida albicans was grown and prepared in a fungal solution with an amount of 1×10^7 CFU/mL and mixed with an equal volume of rose bengal (RB) solution (i.e., the mixed volume ratio was 1:1) to obtain a mixed solution containing 0.2 wt % RB (0.2 wt % RB group).
A portion of the mixed solution containing 0.2 wt % RB and fungi was exposed to green light of 10 J/cm^2 or 20 J/cm^2 at 25±1° C., and another portion of the mixed solution was not treated with light exposure. The light source of the aforementioned green light was a commercial green light LED with an emission peak at the wavelength of 520 nm. […] Noted that three drops represented three repeats. […] In the control group, the fungal solution was mixed with an equal volume of PBS.

C. albicans = experiment: Antimicrobial efficacy of the photoactive solution after adding a low concentration of hydrogen peroxide; format: cell-based, Candida albicans; details: for C. albicans amount compared to the NC group: no light exposure
Experimental: The negative control (referred to as NC) group was the fungal solution of C. albicans not being treated with RB, hydrogen peroxide, and light exposure. The light control (referred to as LC) group was the fungal solution of C. albicans exposed to light but contained neither RB nor hydrogen peroxide. […] The hydrogen peroxide (referred to as H2O2) group was the fungal solution of C. albicans treated with 0.03 wt % hydrogen peroxide without RB for 15 minutes but not subjected to the light exposure treatment. The photodynamic therapy (referred to as PDT) group was the fungal solution of C. albicans treated with 0.1 wt % RB without hydrogen peroxide for 15 minutes and subjected to 35 J/cm^2 green light exposure treatment. The photodynamic therapy with 0.03 wt hydrogen peroxide (referred to as H2O2+PDT) group was the fungal solution of C. albicans treated with 0.1 wt % RB and 0.03 wt % hydrogen peroxide for 15 minutes and subjected to the 35 J/cm^2 green light exposure treatment. FIG. 6 was a bar chart illustrating the amount of C. albicans after different treatments in the fungal solution according to some embodiments of the present invention. The x-axis represented the NC group, the LC group, the DC group, the H2O2 group, the PDT group, and the H2O2+PDT group from left to right. The y-axis represented the C. albicans amount (unit: log CFU/mL).

| Compound | log reduction value of the amounts of C. albicans ([1]; 10 J/cm^2 green light (520 nm)) | antimicrobial rate ([1]; 10 J/cm^2 green light) [%] | log reduction value of the amounts of C. albicans ([1]; 20 J/cm^2 green light (520 nm)) | antimicrobial rate ([1]; 20 J/cm^2 green light) [%] | C. albicans amount compared to the NC group (C. albicans; DC group: 0.1 wt % RB for 15 minutes) | log reduction value of the C. albicans amount (C. albicans; PDT group: 0.1 wt % RB without hydrogen peroxide, 15 minutes, 35 J/cm^2 green light, compared to NC group) | C. albicans amount compared to the NC group (C. albicans; H2O2 group: 0.03 wt % hydrogen peroxide without RB for 15 minutes) |
| --- | --- | --- | --- | --- | --- | --- | --- |
| O=C1OC2(c3cc(I)c(O)c(I)c3Oc3c2cc(I)c(O)c3I)c2c(Cl)c(Cl)c(Cl)c(Cl)c21 [RB, rose bengal] | 1 | 90 | 6 | 99.9999 | no significant difference | 2.5 |  |
| OO [hydrogen peroxide] |  |  |  |  |  |  | no significant difference |
